From PMC11312998, “Molecular Pro-Apoptotic Activities of Flavanone Derivatives in Cyclodextrin Complexes: New Implications for Anticancer Therapy” (International Journal of Molecular Sciences, 2024)

What was measured:
[1] = test system: Ishikawa; test: Plasma membrane fluidity, TMA-DPH fluorescence anisotropy; format: cell-based, human; details: IC50 concentration, 24 h
Experimental: (§1) Changes in plasma membrane fluidity were determined by fluorescence spectroscopy and two fluorescent probes located at different depths of the lipid bilayer: TMA-DPH ((1-(4-Trimethylammoniumphenyl)-6-Phenyl-1,3,5-Hexatriene p-Toluene sulfonate, Sigma-Aldrich; St. Louis, MO, USA) and DAUDA (11-[5-(Dimethylamino)-1-naphthalenesulfonylamino] undecanoic acid, Sigma-Aldrich, St. Louis, MO, USA). TMA-DPH is incorporated in the superficial area of the outer monolayer, while DAUDA penetrates into the deeper hydrophobic area of the membrane. The fluorescence of the probes was measured on a Perkin-Elmer spectrofluorometer (Waltham, MA, USA) with an attachment for measuring fluorescence anisotropy with parallel and perpendicular positions of the polarizers.
(§2) Cells were seeded on sterile 35 mm dishes in numbers appropriate for a given cell line. […] After 24 h incubation, the cells were trypsinized and transferred to Eppendorf tubes (0.5 mL of suspension/sample). The cell suspension was centrifuged at 2500 rpm for 5 min at 4 °C. […] Fluorescence measurements were made on a Perkin-Elmer LS-5B spectrofluorometer (MA, USA) in an attachment with a polarizer, reading the fluorescence anisotropy at an excitation wavelength λex = 365 nm and emission wavelength λem = 425 nm (TMA-DPH), as well as excitation wavelength λex = 350 nm and emission wavelength λem = 420 nm (DAUDA).

[2] = test system: Hec-1-A; test: as above; format: cell-based, human; details: IC50 concentration, 24 h
Experimental: as §1, §2

O=C1/C(=C/c2ccccc2)C(c2ccccc2)Oc2ccccc21 (centres unmarked) [Compound 5]
increase in cell membrane fluidity (TMA-DPH) [1]: approximately 20%

COc1cccc(/C=C2/C(=O)c3ccccc3OC2c2ccccc2)c1 (centres unmarked) [Compound 3]
increase in cell membrane fluidity (TMA-DPH) [2]: approximately 20%
